Common to all, as to assay type: functional
The subject of experiment [1] is B16-F10. The experiment in a line: Growth inhibition of mouse B16F10 cells by MTT assay. On the technique in general: Tetrazolium dyes change colour on reduction, which living cells bring about.
Experiment [2] is described as follows: Growth inhibition of human Hs683 cells by MTT assay. The settings on record: Hs 683.
Experiment [3] deals with SK-MEL-28. The experiment is described as follows: Growth inhibition of human SK-MEL-28 cells by MTT assay.
For experiment [4], the system named is MCF7. The experiment is described as follows: Growth inhibition of human MCF7 cells by MTT assay.
The test system of experiment [5] is A549. The experiment in a line: Growth inhibition of human A549 cells by MTT assay.
The subject of experiment [6] is T98G. The experiment is described as follows: Growth inhibition of human T98G cells by MTT assay.

SMILES strings stand for the structures.

A word on the GI50: it is the concentration that inhibits growth by half. Low values mean more potent growth inhibition, high ones less potent growth inhibition. As for `CC(C)=CCO[C@H]1[C@H]2c3cc4c(cc3CN3CCC(=C[C@@H]1OCC=C(C)C)[C@H]23)OCO4`, the 50% growth inhibitory concentration (GI50) came to 5.3 µM in experiment [1]; 9.7 µM in experiment [2]; 10 µM in experiment [3]; 9.5 µM in experiment [4]; 4.4 µM in experiment [5]; 24 µM in experiment [6].
On to `C#CCCCCO[C@H]1[C@H]2c3cc4c(cc3CN3CCC(=C[C@@H]1OCCCCC#C)[C@H]23)OCO4`, for which the GI50 in experiment [1] came out at 10 µM; in experiment [2], 29 µM; in experiment [3] it was 16 µM; in experiment [4], 16 µM; in experiment [5] it was 2.8 µM; in experiment [6], 6.8 µM.
Take `C1=C2CCN3Cc4cc5c(cc4[C@H]([C@H](OC[C@@H]4CO4)[C@H]1OC[C@@H]1CO1)[C@@H]23)OCO5`: the GI50 in experiment [1] turned out to be 70 µM; in experiment [2], 44 µM; in experiment [3], 70 µM; in experiment [4] it was 77 µM; in experiment [5] it was 39 µM; in experiment [6], 44 µM.
In the case of `O[C@H]1[C@H]2c3cc4c(cc3CN3CCC(=C[C@@H]1OC[C@@H]1CO1)[C@H]23)OCO4`, the 50% growth inhibitory concentration (GI50) in experiment [1] is 51 µM; in experiment [2] it was greater than 100 µM; in experiment [3], greater than 100 µM; in experiment [4], greater than 100 µM; in experiment [5], 54 µM; in experiment [6], 49 µM.
Take `CC(C)[Si](O[C@H]1[C@H]2c3cc4c(cc3CN3CCC(=C[C@@H]1O)[C@H]23)OCO4)(C(C)C)C(C)C`: the GI50 in experiment [1] stood at 9.5 µM; in experiment [2] it was 24 µM; in experiment [3], 24 µM; in experiment [4], 23 µM; in experiment [5] it was 15 µM; in experiment [6], 20 µM.
In the case of `C=CCO[C@H]1[C@H]2c3cc4c(cc3CN3CCC(=C[C@@H]1O[Si](C(C)C)(C(C)C)C(C)C)[C@H]23)OCO4`, the concentration for 50% growth inhibition (GI50) in experiment [1] came out at 0.8 µM; in experiment [2] it was 7.6 µM; in experiment [3] it was 2.4 µM; in experiment [4], 5 µM; in experiment [5], 4.5 µM; in experiment [6] it was 6.6 µM.
Turning to `C#CCCCO[C@H]1[C@H]2c3cc4c(cc3CN3CCC(=C[C@@H]1OCCCC#C)[C@H]23)OCO4`, the 50% growth inhibitory concentration (GI50) in experiment [1] came to 17 µM; in experiment [2] it was 32 µM; in experiment [3], 25 µM; in experiment [4], 22 µM; in experiment [5], 1.3 µM; in experiment [6] it was 7.1 µM.
Take `CCCO[C@H]1[C@H]2c3cc4c(cc3CN3CCC(=C[C@@H]1OCCC)[C@H]23)OCO4`: the GI50 was 13 µM in experiment [1]; 8.1 µM in experiment [2]; 19 µM in experiment [3]; 19 µM in experiment [4]; 4.9 µM in experiment [5]; 24 µM in experiment [6].
Turning to `CCO[C@H]1[C@H]2c3cc4c(cc3CN3CCC(=C[C@@H]1OCC)[C@H]23)OCO4`, the GI50 in experiment [1] came to 18 µM; in experiment [2], 5.9 µM; in experiment [3], 35 µM; in experiment [4], 17 µM; in experiment [5], 4 µM; in experiment [6], 8.1 µM.
On to `C#CCO[C@H]1C=C2CCN3Cc4cc5c(cc4[C@H]([C@@H]1O)[C@@H]23)OCO5`, for which the GI50 in experiment [1] is 42 µM; in experiment [2], 81 µM; in experiment [3], greater than 100 µM; in experiment [4], greater than 100 µM; in experiment [5], 48 µM; in experiment [6], greater than 100 µM.
For the compound `C#CCCCO[C@H]1[C@H]2c3cc4c(cc3CN3CCC(=C[C@@H]1O[Si](C(C)C)(C(C)C)C(C)C)[C@H]23)OCO4`, the GI50 in experiment [1] came to 7.6 µM; in experiment [2], 33 µM; in experiment [3], 28 µM; in experiment [4] it was 27 µM; in experiment [5] it was 19 µM; in experiment [6], 21 µM.
With `COCCO[C@H]1[C@H]2c3cc4c(cc3CN3CCC(=C[C@@H]1OCCOC)[C@H]23)OCO4`, the 50% growth inhibitory concentration (GI50) in experiment [1] was 38 µM; in experiment [2] it was greater than 100 µM; in experiment [3], 68 µM; in experiment [4], 44 µM; in experiment [5] it was 29 µM; in experiment [6], 33 µM.
On to `C#CCCCCO[C@H]1C=C2CCN3Cc4cc5c(cc4[C@H]([C@@H]1O[Si](C(C)C)(C(C)C)C(C)C)[C@@H]23)OCO5`, for which the 50% growth inhibitory concentration (GI50) in experiment [1] came out at 8.7 µM; in experiment [2] it was 23 µM; in experiment [3] it was 25 µM; in experiment [4], 19 µM; in experiment [5], 4.2 µM; in experiment [6] it was 13 µM.
Consider `COCO[C@H]1C=C2CCN3Cc4cc5c(cc4[C@H]([C@@H]1O)[C@@H]23)OCO5`, for which the GI50 in experiment [1] was 55 µM; in experiment [2] it was greater than 100 µM; in experiment [3], 85 µM; in experiment [4] it was 85 µM; in experiment [5] it was 35 µM; in experiment [6], 48 µM.
In the case of `C=Cc1cccc2c1N(C)Cc1cc3c(cc1-2)OCO3`, the 50% growth inhibitory concentration (GI50) was 34 µM in experiment [1]; greater than 100 µM in experiment [2]; 59 µM in experiment [3]; 82 µM in experiment [4]; 54 µM in experiment [5]; 89 µM in experiment [6].
On to `CO[C@H]1C=C2CCN3Cc4cc5c(cc4[C@H]([C@@H]1O)[C@@H]23)OCO5` [HIPPPAMINE], for which the GI50 in experiment [1] is 40 µM; in experiment [2], 36 µM; in experiment [3], 92 µM; in experiment [4], greater than 100 µM; in experiment [5] it was 31 µM; in experiment [6], 84 µM.
Regarding `C#CCO[C@H]1[C@H]2c3cc4c(cc3CN3CCC(=C[C@@H]1O[Si](C(C)C)(C(C)C)C(C)C)[C@H]23)OCO4`, the 50% growth inhibitory concentration (GI50) was determined as 6.2 µM in experiment [1]; 27 µM in experiment [2]; 8.2 µM in experiment [3]; 8.3 µM in experiment [4]; 3.6 µM in experiment [5]; 4.9 µM in experiment [6].
Consider `C1=C2CCN3Cc4cc5c(cc4[C@H]([C@H](OC/C=C/c4ccccc4)[C@H]1OC/C=C/c1ccccc1)[C@@H]23)OCO5`, for which the concentration for 50% growth inhibition (GI50) in experiment [1] was found to be 4.2 µM; in experiment [2] it was 11 µM; in experiment [3], 8.7 µM; in experiment [4] it was 4.2 µM; in experiment [5], 5.5 µM; in experiment [6] it was 22 µM.
`CO[C@H]1[C@H]2c3cc4c(cc3CN3CCC(=C[C@@H]1O[Si](C(C)C)(C(C)C)C(C)C)[C@H]23)OCO4`: the GI50 in experiment [1] is 8.9 µM; in experiment [2], 41 µM; in experiment [3], 28 µM; in experiment [4], 28 µM; in experiment [5] it was 19 µM; in experiment [6] it was 19 µM.
`C#CCCCCO[C@H]1[C@H]2c3cc4c(cc3CN3CCC(=C[C@@H]1O[Si](C(C)C)(C(C)C)C(C)C)[C@H]23)OCO4`: the GI50 worked out at 6.4 µM in experiment [1]; 35 µM in experiment [2]; 26 µM in experiment [3]; 28 µM in experiment [4]; 21 µM in experiment [5]; 24 µM in experiment [6].
For the compound `C1=C2CCN3Cc4cc5c(cc4[C@H]([C@H](OCc4cccnc4)[C@H]1OCc1cccnc1)[C@@H]23)OCO5`, the concentration for 50% growth inhibition (GI50) in experiment [1] was 85 µM; in experiment [2] it was greater than 100 µM; in experiment [3], greater than 100 µM; in experiment [4], 88 µM; in experiment [5], 72 µM; in experiment [6], 87 µM.
As for `C=CCCO[C@H]1C=C2CCN3Cc4cc5c(cc4[C@H]([C@@H]1O)[C@@H]23)OCO5`, the 50% growth inhibitory concentration (GI50) is 21 µM in experiment [1]; 67 µM in experiment [2]; 42 µM in experiment [3]; 7.7 µM in experiment [4]; 11 µM in experiment [5]; 39 µM in experiment [6].
Turning to `COCO[C@H]1[C@H]2c3cc4c(cc3CN3CCC(=C[C@@H]1OCOC)[C@H]23)OCO4`, the 50% growth inhibitory concentration (GI50) in experiment [1] was 31 µM; in experiment [2] it was greater than 100 µM; in experiment [3], 78 µM; in experiment [4] it was 55 µM; in experiment [5], 33 µM; in experiment [6], 53 µM.
On to `O[C@H]1[C@H]2c3cc4c(cc3CN3CCC(=C[C@@H]1OCc1cccnc1)[C@H]23)OCO4`, for which the GI50 is 66 µM in experiment [1]; greater than 100 µM in experiment [2]; 81 µM in experiment [3]; 80 µM in experiment [4]; 40 µM in experiment [5]; 75 µM in experiment [6].
`O[C@H]1[C@H]2c3cc4c(cc3CN3CCC(=C[C@@H]1OCC1CCC1)[C@H]23)OCO4`: the GI50 in experiment [1] is 22 µM; in experiment [2] it was 50 µM; in experiment [3] it was 41 µM; in experiment [4], 37 µM; in experiment [5], 27 µM; in experiment [6], 50 µM.
For `C#CCCCCO[C@H]1C=C2CCN3Cc4cc5c(cc4[C@H]([C@@H]1O)[C@@H]23)OCO5`, the 50% growth inhibitory concentration (GI50) turned out to be 34 µM in experiment [1]; 55 µM in experiment [2]; 49 µM in experiment [3]; 32 µM in experiment [4]; 11 µM in experiment [5]; 34 µM in experiment [6].
For the compound `C#CCCCO[C@H]1C=C2CCN3Cc4cc5c(cc4[C@H]([C@@H]1O)[C@@H]23)OCO5`, the 50% growth inhibitory concentration (GI50) in experiment [1] was 2.6 µM; in experiment [2], 69 µM; in experiment [3], 19 µM; in experiment [4], 21 µM; in experiment [5] it was 0.6 µM; in experiment [6], 4.2 µM.
Consider `CO[C@H]1[C@H]2c3cc4c(cc3CN3CCC(=C[C@@H]1O)[C@H]23)OCO4`, for which the concentration for 50% growth inhibition (GI50) in experiment [1] was 39 µM; in experiment [2], greater than 100 µM; in experiment [3], greater than 100 µM; in experiment [4], greater than 100 µM; in experiment [5], 43 µM; in experiment [6] it was 64 µM.
As for `C#CCO[C@H]1[C@H]2c3cc4c(cc3CN3CCC(=C[C@@H]1OCC#C)[C@H]23)OCO4`, the GI50 in experiment [1] stood at 28 µM; in experiment [2], 27 µM; in experiment [3] it was 52 µM; in experiment [4], 32 µM; in experiment [5] it was 23 µM; in experiment [6], 68 µM.
